Drawing on PubChem BioAssay (NCI), this text covers GI50 and TGI for nine molecules.

Common to all, as to experiment: growth of human tumour cells (NCI), 48 h
For test [1], the system named is COLO 205 colon.
Test [2] has as its system DU-145 prostate.
The test system of test [3] is MCF7 breast.
Test [4] relates to OVCAR-3 ovarian.
The test system of test [5] is SF-295 CNS.
For test [6], the system named is SF-539 CNS.
For test [7], the system named is SR leukemia.
The test system of test [8] is TK-10 renal.

“And” between values parts separate entries of the source, which are not always exact repeats. Identical values can stand only once.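 Method: 48-hour compound exposure of cells in 96-well plates, five concentrations, linear interpolation of endpoints. The concentration for 50% growth inhibition is given as GI50. TGI: total growth inhibition.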 Where a SMILES comes first, the peptide text is derived from it. The star is where a group is joined. Boc = CC(C)(C)OC(=O)*

Consider `O=[P@@]1(c2ccccc2)O[C@H](COCc2ccccc2)[C@@H](OCc2ccccc2)[C@H](OCc2ccccc2)[C@H]1NCc1ccccc1`, for which the GI50 in test [1] is 1.93 µM; in test [2] it was 4.97 µM; in test [3] it was 3.38 µM; in test [4], 3.17 µM; in test [5], 2.05 µM; in test [6], 4.74 µM. The GI50 in test [7] is 2.37 µM; in test [8] it was 3.69 µM. Further, the TGI is 3.71 µM in test [1]; more than 100 µM in test [2]; 70.4 µM in test [3]; 19.3 µM in test [4]; 6.68 µM in test [5]; more than 100 µM in test [6]. Besides, the TGI was 6.69 µM in test [7] and more than 100 µM in test [8].

On to `BrCc1cccc(C[P+](c2ccccc2)(c2ccccc2)c2ccccc2)c1`, for which the GI50 in test [1] is 4.57 µM; in test [2], 52.9 µM; in test [3] it was 13.4 µM; in test [4], 10.8 µM; in test [5], 35.5 µM; in test [6] it was 6.05 µM. Moreover, the GI50 in test [7] is 25.8 µM; in test [8], 12.5 µM. For the same molecule, the TGI in test [1] is 18.9 µM; in test [2], more than 100 µM; in test [3] it was more than 100 µM; in test [4], more than 100 µM; in test [5] it was more than 100 µM; in test [6] it was more than 100 µM. In addition, the TGI in test [7] and in test [8] was more than 100 µM in each case.

On to `CN(C)CCC(=O)C(=Cc1ccc(O)cc1)C(=O)CCN(C)C`, for which the GI50 is 50.9 µM in test [1]; more than 100 µM in test [2]; 30.9 µM in test [3]; more than 100 µM in test [4]; more than 100 µM in test [5]; more than 100 µM in test [6]. The results for the GI50 in test [7] and in test [8] were 93.2 µM and more than 100 µM, respectively. Moreover, the TGI in test [1], in test [2], in test [3], in test [4], in test [5] and in test [6] was more than 100 µM throughout. Also, the TGI in test [7] and in test [8] was more than 100 µM in each case.

Turning to `CC1CCN(C(=O)OCc2nc3nc(Cl)nc(N4CCOCC4)c3[nH]2)CC1`, the GI50 in test [1] is 1.75 µM; in test [2] it was 1.14 µM; in test [3], 0.65 µM; in test [4], 0.438 µM; in test [5] it was 3.76 µM; in test [6], 1.11 µM. Moreover, the GI50 is 0.331 µM in test [7] and 1.82 µM in test [8]. For the same molecule, the TGI in test [1] amounted to 4.99 µM; in test [2], 2.35 µM; in test [3] it was 2.38 µM; in test [4], 1.71 µM; in test [5] it was 15.3 µM; in test [6] it was 2.32 µM. Besides, the TGI in test [7] was determined as 3.31 µM; in test [8], 3.44 µM.

`COC(=O)C(C)NC(=O)C(CCSC)NC(=O)C(Cc1ccccc1)NC(=O)OC(C)(C)C` (stereo not drawn) (Boc-Phe-Met-Ala-OMe; configuration not given here): the GI50 was 24.2 µg/mL in test [1]; 43.7 µg/mL in test [2]; 31.7 µg/mL in test [3]; 26.6 µg/mL in test [4]; 21.4 µg/mL in test [7]; 4.41 µg/mL in test [8]. Moreover, the TGI in test [1] was 47.4 µg/mL and > 100 µM; in test [2], more than 100 µM; in test [3], more than 100 µM; in test [4], 52.7 µg/mL and > 100 µM; in test [5], more than 100 µM; in test [6], more than 100 µM. The TGI in test [7] is 44.8 µg/mL and > 100 µM.

For `CC1(Br)Cc2ccccc2C1=O` (stereo unspecified), the TGI in test [1] was found to be 17.5 µM; in test [2], 33.6 µM; in test [3], 8.52 µM; in test [4], 14.5 µM; in test [5], 36.2 µM; in test [6], 16.8 µM. The TGI was determined as 1.25 µM in test [7] and 29.8 µM in test [8]. The GI50 in test [3] was 2.22 µM; in test [4] it was 4.11 µM; in test [7], 0.129 µM.

As for `O=[N+]([O-])c1cccc2ccc(N/N=C/c3ccccc3O)nc12`, the GI50 in test [1] is 1.91 µM; in test [2] it was more than 23.8 µM; in test [3], 2.34 µM; in test [4] it was 4.48 µM; in test [5], more than 87.6 µM; in test [6] it was more than 100 µM. The GI50 in test [7] is 0.148 µM; in test [8], more than 100 µM. Also, the TGI in test [1] was more than 19.8 µM; in test [2], more than 100 µM; in test [3] it was more than 100 µM; in test [4], more than 100 µM; in test [5], more than 100 µM; in test [6] it was more than 100 µM. For the same molecule, the TGI was 7.03 µM in test [7] and more than 100 µM in test [8].

Consider `O=C1c2cccc3cccc(c23)C(=O)N1CCCCCN1CCN(CCCCCOc2ccc(-c3nc4ccc(N5CCOCC5)cc4[nH]3)cc2)CC1`, for which the GI50 in test [1] was 13.1 µM; in test [2], 14.7 µM; in test [3] it was 2.49 µM; in test [4], 6.07 µM; in test [5], 8.04 µM; in test [6] it was 10.6 µM. Further, the GI50 in test [7] was 1.18 µM; in test [8] it was 8.24 µM. For the same molecule, the TGI stood at 28.7 µM in test [1]; 27.8 µM in test [2]; 8 µM in test [3]; 11.2 µM in test [4]; 25.4 µM in test [5]; 29 µM in test [6]. Besides, the TGI in test [7] is 3.2 µM; in test [8], 14.8 µM.

Consider `Cc1ccc(Nc2oc(-c3ccccc3)nc2[P+](c2ccccc2)(c2ccccc2)c2ccccc2)cc1`, for which the GI50 in test [1] is 1.33 µM; in test [2], 1.34 µM; in test [3], 0.433 µM; in test [4], 0.299 µM; in test [5] it was 1.24 µM; in test [6], 1.59 µM. Moreover, the GI50 in test [7] was 0.698 µM; in test [8] it was 1.37 µM. The TGI worked out at 3.1 µM in test [1]; 4.16 µM in test [2]; 1.98 µM in test [3]; 1 µM in test [4]; 2.6 µM in test [5]; 3.02 µM in test [6]. In addition, the TGI in test [7] stood at 2.44 µM; in test [8] it was 2.93 µM.
